Source: the supplement of paper PMC10307832

What was measured:
Test in all cases: relative viability (nuclei count vs DMSO), 5 days (fraction); higher = more cells survive
CUDC-101 + Luminespib = compound: C#Cc1cccc(Nc2ncnc3cc(OC)c(OCCCCCCC(=O)NO)cc23)c1 [CUDC-101] + CCNC(=O)c1noc(-c2cc(C(C)C)c(O)cc2O)c1-c1ccc(CN2CCOCC2)cc1 [Luminespib] (partner 0.01 µM)
Summary of the method: (§1)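 Lung cancer cell lines, seeded in 1536-well plates, were treated the following day by pin tool with a single drug or with five library-drug doses (not always all listed) in √10 steps on top of a fixed anchor-drug dose. Cells were fixed and nuclei stained in one step after 5 days, and nuclei were counted. Relative viability is the nuclei count for treated wells divided by that for vehicle wells, reported as medians of duplicate plates.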

[1] = compound: C1=CC=C2C(=C1)N=C(S2)C(C#N)C3=NC(=NC=C3)NCCC4=CN=CC=C4 + CS(=O)(=O)N1CCN(Cc2cc3nc(-c4cccc5[nH]ncc45)nc(N4CCOCC4)c3s2)CC1 [Pictilisib] (partner 1 µM)
Summary of the method: as §1

[2] = compound: C1=CC=C2C(=C1)N=C(S2)C(C#N)C3=NC(=NC=C3)NCCC4=CN=CC=C4 + NC(=O)Nc1cc(-c2cccc(F)c2)sc1C(=O)N[C@H]1CCCNC1 [AZD7762] (partner 0.2 µM)
Summary of the method: as §1

NVP-TAE684 + Pemetrexed = compound: COc1cc(N2CCC(N3CCN(C)CC3)CC2)ccc1Nc1ncc(Cl)c(Nc2ccccc2S(=O)(=O)C(C)C)n1 [NVP-TAE684] + Nc1nc2[nH]cc(CCc3ccc(C(=O)N[C@@H](CCC(=O)O)C(=O)O)cc3)c2c(=O)[nH]1 [Pemetrexed] (partner 0.2 µM)
Summary of the method: as §1

In the case of NCI-H650, the relative viability (CUDC-101 + Luminespib; first compound 0.01 µM) was 0.959, the relative viability (CUDC-101 + Luminespib; first compound 0.03162 µM) was 0.688 and the relative viability (CUDC-101 + Luminespib; first compound 0.1 µM) was 0.912. It also gave a relative viability (CUDC-101 + Luminespib; first compound 0.3162 µM) of 0.957, a relative viability (CUDC-101 + Luminespib; first compound 1 µM) of 0.619 and a relative viability ([1]; first compound 0.005 µM) of 0.728. It also gave a relative viability ([1]; first compound 0.01581 µM) of 0.845, a relative viability ([1]; first compound 0.05 µM) of 0.804 and a relative viability ([1]; first compound 0.1581 µM) of 0.934. The relative viability ([1]; first compound 0.5 µM) was 0.901, the relative viability ([2]; first compound 0.005 µM) was 1.12 and the relative viability ([2]; first compound 0.01581 µM) was 1.07. For the same cell line, the relative viability ([2]; first compound 0.05 µM) was 0.891, the relative viability ([2]; first compound 0.1581 µM) was 1.23 and the relative viability ([2]; first compound 0.5 µM) was 1.09. It also gave a relative viability (NVP-TAE684 + Pemetrexed; first compound 0.2 µM) of 0.901, a relative viability (NVP-TAE684 + Pemetrexed; first compound 0.6325 µM) of 0.939 and a relative viability (NVP-TAE684 + Pemetrexed; first compound 2 µM) of 0.757.

In the case of NCI-H838, the relative viability (CUDC-101 + Luminespib; first compound 0.01 µM) was 0.302, the relative viability (CUDC-101 + Luminespib; first compound 0.03162 µM) was 0.248 and the relative viability (CUDC-101 + Luminespib; first compound 0.1 µM) was 0.228. It also gave a relative viability (CUDC-101 + Luminespib; first compound 0.3162 µM) of 0.251, a relative viability (CUDC-101 + Luminespib; first compound 1 µM) of 0.218 and a relative viability ([1]; first compound 0.005 µM) of 0.463. The relative viability ([1]; first compound 0.01581 µM) was 0.413, the relative viability ([1]; first compound 0.05 µM) was 0.439 and the relative viability ([1]; first compound 0.1581 µM) was 0.612. The relative viability ([1]; first compound 0.5 µM) was 0.391, the relative viability ([2]; first compound 0.005 µM) was 0.889 and the relative viability ([2]; first compound 0.01581 µM) was 0.891. The relative viability ([2]; first compound 0.05 µM) was 0.907, the relative viability ([2]; first compound 0.1581 µM) was 0.92 and the relative viability ([2]; first compound 0.5 µM) was 0.836. It also gave a relative viability (NVP-TAE684 + Pemetrexed; first compound 0.2 µM) of 0.25, a relative viability (NVP-TAE684 + Pemetrexed; first compound 0.6325 µM) of 0.239 and a relative viability (NVP-TAE684 + Pemetrexed; first compound 2 µM) of 0.17.

Work on NCI-H358 yielded a relative viability (CUDC-101 + Luminespib; first compound 0.01 µM) of 0.263, a relative viability (CUDC-101 + Luminespib; first compound 0.03162 µM) of 0.407 and a relative viability (CUDC-101 + Luminespib; first compound 0.1 µM) of 0.225. For the same cell line, the relative viability (CUDC-101 + Luminespib; first compound 0.3162 µM) was 0.659, the relative viability (CUDC-101 + Luminespib; first compound 1 µM) was 0.448 and the relative viability ([1]; first compound 0.005 µM) was 0.347. It also gave a relative viability ([1]; first compound 0.01581 µM) of 0.295, a relative viability ([1]; first compound 0.05 µM) of 0.319 and a relative viability ([1]; first compound 0.1581 µM) of 0.371. It also gave a relative viability ([1]; first compound 0.5 µM) of 0.342, a relative viability ([2]; first compound 0.005 µM) of 0.579 and a relative viability ([2]; first compound 0.01581 µM) of 0.492. The relative viability ([2]; first compound 0.1581 µM) was 0.592, the relative viability ([2]; first compound 0.5 µM) was 0.496 and the relative viability (NVP-TAE684 + Pemetrexed; first compound 0.2 µM) was 0.166. For the same cell line, the relative viability (NVP-TAE684 + Pemetrexed; first compound 0.6325 µM) was 0.151 and the relative viability (NVP-TAE684 + Pemetrexed; first compound 2 µM) was 0.13.

With HOP-62 the relative viability (CUDC-101 + Luminespib; first compound 0.01 µM) was 0.931, the relative viability (CUDC-101 + Luminespib; first compound 0.03162 µM) was 0.875 and the relative viability (CUDC-101 + Luminespib; first compound 0.1 µM) was 0.902. The relative viability (CUDC-101 + Luminespib; first compound 0.3162 µM) was 0.859, the relative viability (CUDC-101 + Luminespib; first compound 1 µM) was 0.794 and the relative viability ([1]; first compound 0.005 µM) was 0.585. For the same cell line, the relative viability ([1]; first compound 0.01581 µM) was 0.672, the relative viability ([1]; first compound 0.05 µM) was 0.646 and the relative viability ([1]; first compound 0.1581 µM) was 0.945. The relative viability ([1]; first compound 0.5 µM) was 0.775, the relative viability ([2]; first compound 0.005 µM) was 0.271 and the relative viability ([2]; first compound 0.01581 µM) was 0.824. The relative viability ([2]; first compound 0.05 µM) was 0.705, the relative viability ([2]; first compound 0.1581 µM) was 0.542 and the relative viability ([2]; first compound 0.5 µM) was 0.534. For the same cell line, the relative viability (NVP-TAE684 + Pemetrexed; first compound 0.2 µM) was 0.34, the relative viability (NVP-TAE684 + Pemetrexed; first compound 0.6325 µM) was 0.392 and the relative viability (NVP-TAE684 + Pemetrexed; first compound 2 µM) was 0.345.
